Patent publication US5840684A, “Glycopeptide antibiotic derivatives” (Eli Lilly and Company, priority 1995, dated 1998)
Values after ≈ are worked out from the molar mass of the structure shown.

What was measured:
[1] = system: Staphylococcus aureus S13E; format: cell-based
Protocol: (§1) The MIC's were determined using a standard broth micro-dilution assay.

[2] = system: Staphylococcus aureus SA1199B; format: cell-based
Protocol: as §1

[3] = system: Entercoccus faecium 180-1; assay: broth micro-dilution MIC; format: cell-based
Protocol: as §1

[4] = system: Entercoccus faecium 276; assay: broth micro-dilution MIC; format: cell-based
Protocol: as §1

[5] = system: Staphylococcus aureus 446; assay: broth micro-dilution MIC; format: cell-based
Protocol: as §1

[6] = system: Staphylococcus aureus 489; assay: broth micro-dilution MIC; format: cell-based
Protocol: as §1

[7] = system: Staphylococcus aureus 491; assay: broth micro-dilution MIC; format: cell-based
Protocol: as §1

[8] = system: Staphylococcus aureus SA1199A; assay: broth micro-dilution MIC; format: cell-based
Protocol: as §1

[9] = system: Staphylococcus aureus SA1199; assay: broth micro-dilution MIC; format: cell-based
Protocol: as §1

[10] = system: Staphylococcus aureus X400; assay: broth micro-dilution MIC; format: cell-based
Protocol: as §1

[11] = system: Staphylococcus aureus X778; assay: broth micro-dilution MIC; format: cell-based
Protocol: as §1

[12] = system: Streptococcus pyogenes C203; assay: broth micro-dilution MIC; format: cell-based
Protocol: as §1

[13] = system: Entercoccus faecium 180; assay: broth micro-dilution MIC; format: cell-based; conditions: Entercoccus faecium 180
Protocol: (§2) The formula I compounds have in vitro and in vivo activity against Gram-positive pathogenic bacteria. The MIC's were determined using a standard broth micro-dilution assay.

[14] = system: Entercoccus faecium 2041; assay: broth micro-dilution MIC; format: cell-based; conditions: Entercoccus faecium 2041
Protocol: as §2

[15] = system: Enterococcus gallinarum 245; assay: broth micro-dilution MIC; format: cell-based; conditions: Enterococcus gallinarum 245
Protocol: as §2

[16] = system: Haemophilus influenzae RD; assay: broth micro-dilution MIC; format: cell-based; conditions: Haemophilus influenzae RD
Protocol: as §2

[17] = system: Staphylococcus haemolyticus 105; assay: broth micro-dilution MIC; format: cell-based
Protocol: as §2

[18] = system: Staphylococcus haemolyticus 415; assay: broth micro-dilution MIC; format: cell-based
Protocol: as §2

[19] = system: Streptococcus pneumoniae P1; assay: broth micro-dilution MIC; format: cell-based
Protocol: as §2

[20] = system: Streptococcus pyogenes; assay: mouse protection, experimentally-induced infection; format: in vivo; conditions: mice infected with Streptococcus pyogenes, two doses
[21] = system: Streptococcus pneumoniae; assay: mouse protection, experimentally-induced infection; format: in vivo; conditions: mice infected with Streptococcus pneumoniae, two doses
[22] = system: vancomycin-resistant enterococci; assay: broth micro-dilution, mean geometric MIC; format: cell-based, Enterococcus faecium and Enterococcus faecalis; conditions: enterococci, 24-hour incubation
[23] = system: vancomycin-susceptible enterococci; assay: broth micro-dilution, mean geometric MIC; format: cell-based, Enterococcus faecium and Enterococcus faecalis; conditions: enterococci, 24-hour incubation
[24] = system: Staphylococcus aureus 447; assay: broth micro-dilution MIC; format: cell-based
Protocol: as §1

[25] = system: Staphylococcus epidermidis 270; assay: broth micro-dilution MIC; format: cell-based
Protocol: as §2

[26] = system: Stapylococcus aureus; assay: mouse protection, experimentally-induced infection; format: in vivo; conditions: mice infected with Stapylococcus aureus, two doses

Row | SMILES | MIC [1] [µg/mL] | MIC [2] | MIC [3] [µg/mL] | MIC [4] [µg/mL] | MIC [5] [µg/mL] | MIC [7] [µg/mL] | MIC [11] [µg/mL] | MIC [12] [µg/mL] | MIC [13] [µg/mL] | MIC [14] [µg/mL] | MIC [15] [µg/mL] | MIC [16] [µg/mL] | MIC [17] [µg/mL] | MIC [18] [µg/mL] | MIC [19] | ED50 [20] [mg/kg/2] | ED50 [21] [mg/kg/2] | mean geometric MIC, Vancomycin Resistant Strains [22] [µg/mL] | mean geometric MIC, Vancomycin Sensitive Strains [23] [µg/mL] | MIC [24] [µg/mL] | further results
1 | CNC(CC(C)C)C(=O)NC1C(=O)NC(CC(N)=O)C(=O)NC2C(=O)NC3C(=O)NC(C(=O)NC(C(=O)O)c4cc(O)cc(O)c4-c4cc3ccc4O)C(OC3CC(C)(N)C(O)C(C)O3)c3ccc(c(Cl)c3)Oc3cc2cc(c3OC2OC(CO)C(O)C(O)C2OC2CC(C)(NCc3ccc(Cc4ccccc4)c(OC)c3)C(O)C(C)O2)Oc2ccc(cc2Cl)C1O (centres unmarked) [Compound 104] | ≤ 0.06 | 0.125 µg/mL (≈ 0.0693 µM) | ≤ 0.06 | ≤ 0.06 | ≤ 0.06 | ≤ 0.06 | ≤ 0.06 | ≤ 0.06 | ≤ 0.06 | ≤ 0.06 | 2 (≈ 1.11 µM) | 32 (≈ 17.8 µM) | 2 (≈ 1.11 µM) | 2 (≈ 1.11 µM) | ≤ 0.06 µg/mL | 0.12 | 0.041 | 1.2 | 0.062 |  | MIC [6]: ≤ 0.06 µg/mL; MIC [8]: ≤ 0.06 µg/mL; MIC [9]: 2 µg/mL (≈ 1.11 µM); MIC [10]: ≤ 0.06 µg/mL
2 | CNC(CC(C)C)C(=O)NC1C(=O)NC(CC(N)=O)C(=O)NC2C(=O)NC3C(=O)NC(C(=O)NC(C(=O)O)c4cc(O)cc(O)c4-c4cc3ccc4O)C(OC3CC(C)(N)C(O)C(C)O3)c3ccc(c(Cl)c3)Oc3cc2cc(c3OC2OC(CO)C(O)C(O)C2OC2CC(C)(NCc3ccc(-c4ccc(Br)cc4)cc3)C(O)C(C)O2)Oc2ccc(cc2Cl)C1O (centres unmarked) [Compound 230] | 0.5 (≈ 0.272 µM) |  | ≤ 0.06 | ≤ 0.06 |  |  |  | ≤ 0.06 | ≤ 0.06 | ≤ 0.06 | 4 (≈ 2.18 µM) | 32 (≈ 17.4 µM) | 1 (≈ 0.544 µM) | 2 (≈ 1.09 µM) | ≤ 0.06 µg/mL | 0.046 | 0.078 | 0.35 | 0.031 | 0.5 (≈ 0.272 µM) | MIC [8]: ≤ 0.06 µg/mL; MIC [10]: 0.5 µg/mL (≈ 0.272 µM); MIC [25]: 0.5 µg/mL (≈ 0.272 µM)
3 | CNC(CC(C)C)C(=O)NC1C(=O)NC(CC(N)=O)C(=O)NC2C(=O)NC3C(=O)NC(C(=O)NC(C(=O)O)c4cc(O)cc(O)c4-c4cc3ccc4O)C(OC3CC(C)(N)C(O)C(C)O3)c3ccc(c(Cl)c3)Oc3cc2cc(c3OC2OC(CO)C(O)C(O)C2OC2CC(C)(NCc3ccc(OC(F)(F)C(F)F)cc3)C(O)C(C)O2)Oc2ccc(cc2Cl)C1O (centres unmarked) [Compound 121] | ≤ 0.06 | 0.25 µg/mL (≈ 0.139 µM) | ≤ 0.06 | ≤ 0.06 | 2 (≈ 1.11 µM) | ≤ 0.06 | 0.5 (≈ 0.278 µM) | ≤ 0.06 | ≤ 0.06 | ≤ 0.06 | 2 (≈ 1.11 µM) | 16 (≈ 8.9 µM) | 2 (≈ 1.11 µM) | 2 (≈ 1.11 µM) | ≤ 0.06 µg/mL | 0.041 | 0.047 | 1.0 | 0.063 | 0.5 (≈ 0.278 µM) | MIC [6]: 1 µg/mL (≈ 0.556 µM); MIC [8]: ≤ 0.06 µg/mL; MIC [9]: 1 µg/mL (≈ 0.556 µM); MIC [25]: 1 µg/mL (≈ 0.556 µM)
4 | CNC(CC(C)C)C(=O)NC1C(=O)NC(CC(N)=O)C(=O)NC2C(=O)NC3C(=O)NC(C(=O)NC(C(=O)O)c4cc(O)cc(O)c4-c4cc3ccc4O)C(OC3CC(C)(N)C(O)C(C)O3)c3ccc(c(Cl)c3)Oc3cc2cc(c3OC2OC(CO)C(O)C(O)C2OC2CC(C)(NCc3ccc(-c4ccc(Cl)cc4)cc3)C(O)C(C)O2)Oc2ccc(cc2Cl)C1O (centres unmarked) [Compound 229, 4-[4-chlorophenyl]benzyl-A82846B] | 1 (≈ 0.558 µM) | 1 µg/mL (≈ 0.558 µM) | ≤ 0.06 | 0.25 (≈ 0.139 µM) | 1 (≈ 0.558 µM) | 0.5 (≈ 0.279 µM) | 1 (≈ 0.558 µM) | ≤ 0.06 | ≤ 0.06 | ≤ 0.06 | 2 (≈ 1.12 µM) | 2 (≈ 1.12 µM) | 1 (≈ 0.558 µM) | 2 (≈ 1.12 µM) | ≤ 0.06 µg/mL | 0.058 | 0.078 | 0.50 | 0.024 | 2 (≈ 1.12 µM) | MIC [6]: 1 µg/mL (≈ 0.558 µM); MIC [8]: ≤ 0.06 µg/mL; MIC [9]: 1 µg/mL (≈ 0.558 µM); MIC [10]: 1 µg/mL (≈ 0.558 µM); MIC [25]: 0.5 µg/mL (≈ 0.279 µM)
5 | C=CCCCCCCCCCNC1(C)CC(OC2C(Oc3c4cc5cc3Oc3ccc(cc3Cl)C(OC3CC(C)(N)C(O)C(C)O3)C3NC(=O)C(NC(=O)C5NC(=O)C(CC(N)=O)NC(=O)C(NC(=O)C(CC(C)C)NC)C(O)c5ccc(c(Cl)c5)O4)c4ccc(O)c(c4)-c4c(O)cc(O)cc4C(C(=O)O)NC3=O)OC(CO)C(O)C2O)OC(C)C1O (centres unmarked) [Compound 204] | 0.5 (≈ 0.287 µM) |  |  | ≤ 0.06 |  | 0.5 (≈ 0.287 µM) | 0.5 (≈ 0.287 µM) | ≤ 0.06 |  | ≤ 0.06 |  | 2 (≈ 1.15 µM) | 0.5 (≈ 0.287 µM) |  | ≤ 0.06 µg/mL | < 0.031 | 0.046 | 0.71 | 0.031 | ≤ 0.06 | MIC [25]: ≤ 0.06 µg/mL
6 | CNC(CC(C)C)C(=O)NC1C(=O)NC(CC(N)=O)C(=O)NC2C(=O)NC3C(=O)NC(C(=O)NC(C(=O)O)c4cc(O)cc(O)c4-c4cc3ccc4O)C(OC3CC(C)(N)C(O)C(C)O3)c3ccc(c(Cl)c3)Oc3cc2cc(c3OC2OC(CO)C(O)C(O)C2OC2CC(C)(NCc3cccc(OCC4CCCCC4)c3)C(O)C(C)O2)Oc2ccc(cc2Cl)C1O (centres unmarked) [Compound 123] | ≤ 0.06 | 0.5 µg/mL (≈ 0.279 µM) | ≤ 0.06 | 0.25 (≈ 0.139 µM) | 2 (≈ 1.11 µM) | ≤ 0.06 | 1 (≈ 0.557 µM) | ≤ 0.06 | 0.25 (≈ 0.139 µM) | ≤ 0.06 | 1 (≈ 0.557 µM) | 16 (≈ 8.91 µM) | 2 (≈ 1.11 µM) | 1 (≈ 0.557 µM) | ≤ 0.06 µg/mL | 0.076 | 0.039 | 1.0 | 0.041 | 1 (≈ 0.557 µM) | MIC [6]: 2 µg/mL (≈ 1.11 µM); MIC [9]: 2 µg/mL (≈ 1.11 µM); MIC [10]: 1 µg/mL (≈ 0.557 µM); MIC [25]: 1 µg/mL (≈ 0.557 µM)
7 | CN[C@@H](CC(C)C)C(=O)N[C@H]1C(=O)N[C@H](CC(N)=O)C(=O)N[C@H]2C(=O)N[C@H]3C(=O)N[C@@H](C(=O)NC(C(=O)O)c4cc(O)cc(O)c4-c4cc3ccc4O)[C@@H](O[C@H]3C[C@](C)(N)[C@H](O)[C@@H](C)O3)c3ccc(cc3)Oc3cc2cc(c3O[C@H]2O[C@@H](CO)[C@@H](O)[C@H](O)[C@@H]2O[C@H]2C[C@](C)(N)[C@H](O)[C@@H](C)O2)Oc2ccc(cc2)[C@@H]1O (some centres unmarked) [Compound A82846C, A82846C, reference compound] |  | ≤ .06 µg/mL |  | 0.5 (≈ 0.328 µM) | 0.5 (≈ 0.328 µM) | 1 (≈ 0.656 µM) | 0.5 (≈ 0.328 µM) |  | 16 (≈ 10.5 µM) | 0.5 (≈ 0.328 µM) | 0.5 (≈ 0.328 µM) |  | 1 (≈ 0.656 µM) | 2 (≈ 1.31 µM) | ≤ .06 µg/mL | 1.5 |  | 353 |  | 0.5 (≈ 0.328 µM) | MIC [6]: ≤ .06 µg/mL; ED50 [26]: 1.3 mg/kg/2
